Like-named read-outs stand apart in the source and are kept apart here. Each block holds one compound with its values, some of them ahead of it.
Target: T1, MCR-1 (Homo sapiens, UniProt Q01726)
T1 construct: expressed in transfected cells; host or cells: HEK 293
Assay: Melanocortin receptor binding assay, competition with 125I-HP 467, HEK 293 cells expressing hMCR-1
Details: for IC50: read-out: MC-1 IC50; for % Disp. of 125I-HP 467 (first of duplicate) / % Disp. of 125I-HP 467 (second of duplicate): 10 μM isoquinoline compound; for % Disp. of 125I-HP 467 (first of duplicate): HEK 293 cells expressing MCR-1, duplicate 1; for % Disp. of 125I-HP 467 (second of duplicate): HEK 293 cells expressing MCR-1, duplicate 2; for % Disp. MC-1 10 μM: displacement of 125I-HP 467 at 10 μM isoquinoline compound
Summary of the method: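 Test compounds compete on intact HEK 293 cells carrying hMCR-1 (2×10^4 per tube) or hMCR-4 (4×10^3 per tube), suspended in PBS, 10% calf serum, 1 mM CaCl2.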

[1] = competition with 125I-HP 467, HEK 293 cells expressing MCR-1
[2] = inhibition of binding of 125I-HP 467, HEK 293 cells expressing MCR-1

T1 sequence (Q01726 whole entry): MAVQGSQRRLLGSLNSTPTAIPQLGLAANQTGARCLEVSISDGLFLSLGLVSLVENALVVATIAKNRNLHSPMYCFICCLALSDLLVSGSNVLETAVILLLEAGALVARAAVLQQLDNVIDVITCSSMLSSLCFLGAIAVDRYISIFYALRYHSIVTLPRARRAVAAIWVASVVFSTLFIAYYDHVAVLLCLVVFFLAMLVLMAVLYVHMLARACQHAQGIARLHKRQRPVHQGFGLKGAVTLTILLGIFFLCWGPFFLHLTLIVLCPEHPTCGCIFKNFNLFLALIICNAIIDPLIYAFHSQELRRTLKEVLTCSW

IC50 [1]: 0.51 µM
Compound: NCC(CCCCN1Cc2ccccc2C(CN)C1c1ccc(-c2ccccc2)cc1)NCc1ccccc1 (mixture of isomers) [TRG 2411-35]

% Disp. of 125I-HP 467 (first of duplicate): 75.9%
% Disp. of 125I-HP 467 (second of duplicate): 70.8%
Compound: CNC(CN)CCCCN1Cc2ccccc2C(CNC2CCCCC2)C1c1cccc(C(F)(F)F)c1 (centres unmarked) [TRG 2405-215]

% Disp. MC-1 10 μM (first of duplicate): 56.4%
% Disp. MC-1 10 μM (second of duplicate): 56.1%
Compound: CNC(CN)CN1Cc2ccccc2C(CNC2CCCCC2)C1c1ccc(C(C)C)cc1 (centres unmarked) [TRG 2405-157]

% Disp. of 125I-HP 467 (first of duplicate): 55.8%
% Disp. of 125I-HP 467 (second of duplicate): 46%
Compound: CNC(CN)CCCCN1Cc2ccccc2C(CNC2CCCCC2)C1c1cccn1C (centres unmarked) [TRG 2405-184]

% Disp. MC-1 10 μM (first of duplicate): 37.6%
% Disp. MC-1 10 μM (second of duplicate): 54.7%
Compound: CNC(CN)CN1Cc2ccccc2C(CNC2CCCCC2)C1c1ccc(OC)cc1 (centres unmarked) [TRG 2405-150]

IC50 [1]: 1.46 µM
Compound: NCC(CCCN1Cc2ccccc2C(CN)C1c1ccc(-c2ccccc2)cc1)NCCc1ccccc1 (centres unmarked) [TRG 2411-139]

% Disp. of 125I-HP 467 (first of duplicate): 69.8%
% Disp. of 125I-HP 467 (second of duplicate): 69.4%
Compound: CNC(CN)CCCCN1Cc2ccccc2C(CNC2CCCCC2)C1c1cccc(OC)c1 (centres unmarked) [TRG 2405-225]

% Disp. MC-1 10 μM (first of duplicate): 17.3%
% Disp. MC-1 10 μM (second of duplicate): 26.3%
Compound: Cc1ccc(C2C(CNC3CCCCC3)c3ccccc3CN2CCN)o1 (centres unmarked) [TRG 2405-79]

% Disp. MC-1 10 μM (first of duplicate): 43.3%
% Disp. MC-1 10 μM (second of duplicate): 43.4%
Compound: NCCN1Cc2ccccc2C(CNC2CCCCC2)C1c1ccsc1 (centres unmarked) [TRG 2405-53]

% Disp. MC-1 10 μM (first of duplicate): 36%
% Disp. MC-1 10 μM (second of duplicate): 32.8%
Compound: NCCN1Cc2ccccc2C(CNC2CCCCC2)C1c1ccco1 (centres unmarked) [TRG 2405-17]

IC50 [2]: 0.16 µM
Compound: CCOc1ccc(C2C(CNCCc3ccccc3)c3ccccc3CN2CCCC(CN)NC)cc1 (centres unmarked) [TRG 2412-19]

% Disp. MC-1 10 μM (first of duplicate): 32.8%
% Disp. MC-1 10 μM (second of duplicate): 33.3%
Compound: CNC(CN)CN1Cc2ccccc2C(CNC2CCCCC2)C1c1c(F)cccc1Cl (centres unmarked) [TRG 2405-104]

IC50 [1]: 0.35 µM
Compound: NCC(CCCCN1Cc2ccccc2C(CN)C1c1ccc(-c2ccccc2)cc1)NCC1CCCCC1 (centres unmarked) [TRG 2411-34]

% Disp. MC-1 10 μM (first of duplicate): 17.6%
% Disp. MC-1 10 μM (second of duplicate): 40.7%
Compound: CNC(CN)CN1Cc2ccccc2C(CNC2CCCCC2)C1c1cc(C)c(O)c(C)c1 (centres unmarked) [TRG 2405-122]

% Disp. MC-1 10 μM (first of duplicate): 39.2%
% Disp. MC-1 10 μM (second of duplicate): 55.7%
Compound: CNC(CN)CN1Cc2ccccc2C(CNC2CCCCC2)C1c1cccc(F)c1 (centres unmarked) [TRG 2405-131]

% Disp. of 125I-HP 467 (first of duplicate): 43.5%
% Disp. of 125I-HP 467 (second of duplicate): 42.9%
Compound: CNC(CN)CCCCN1Cc2ccccc2C(CNC2CCCCC2)C1c1cccc(CN)c1 (centres unmarked) [TRG 2405-219]

% Disp. MC-1 10 μM (first of duplicate): 40.6%
% Disp. MC-1 10 μM (second of duplicate): 46%
Compound: CNC(CN)CN1Cc2ccccc2C(CNC2CCCCC2)C1c1cccc(C)c1 (centres unmarked) [TRG 2405-137]

IC50 [1]: 0.64 µM
Compound: CCCCNc1ccc(C2C(CNC3CCCCC3)c3ccccc3CN2CCCCC(CN)NCCc2ccc(Br)cc2)cc1 (centres unmarked) [TRG 2411-91]

% Disp. of 125I-HP 467 (first of duplicate): 41.2%
% Disp. of 125I-HP 467 (second of duplicate): 47.3%
Compound: CNC(CN)CCCCN1Cc2ccccc2C(CNC2CCCCC2)C1c1c(F)cccc1F (centres unmarked) [TRG 2405-191]

IC50 [2]: 0.41 µM
Compound: CCCOc1ccc(C2C(CNCCc3ccccc3)c3ccccc3CN2CCCC(CN)NCc2ccccc2)cc1 (centres unmarked) [TRG 2412-24]

% Disp. of 125I-HP 467 (first of duplicate): 78.9%
% Disp. of 125I-HP 467 (second of duplicate): 67.9%
Compound: CNC(CN)CCCCN1Cc2ccccc2C(CNC2CCCCC2)C1c1ccc(F)c(Br)c1 (centres unmarked) [TRG 2405-216]

% Disp. MC-1 10 μM (first of duplicate): 20.2%
% Disp. MC-1 10 μM (second of duplicate): 49.9%
Compound: CNC(CN)CN1Cc2ccccc2C(CNC2CCCCC2)C1c1ccccc1CN (centres unmarked) [TRG 2405-105]

% Disp. MC-1 10 μM (first of duplicate): 49.8%
% Disp. MC-1 10 μM (second of duplicate): 49%
Compound: Cc1ccc(C2C(CNC3CCCCC3)c3ccccc3CN2CCN)cc1 (centres unmarked) [TRG 2405-69]

% Disp. of 125I-HP 467 (first of duplicate): 60.5%
% Disp. of 125I-HP 467 (second of duplicate): 54.1%
Compound: CNC(CN)CCCCN1Cc2ccccc2C(CNC2CCCCC2)C1c1ccc[nH]1 (mixture of isomers) [TRG 2405-265]

% Disp. MC-1 10 μM (first of duplicate): 48.4%
% Disp. MC-1 10 μM (second of duplicate): 45.9%
Compound: NCCN1Cc2ccccc2C(CNC2CCCCC2)C1c1nccs1 (centres unmarked) [TRG 2405-90]

% Disp. MC-1 10 μM (first of duplicate): 34.7%
% Disp. MC-1 10 μM (second of duplicate): 54.2%
Compound: CNC(CN)CN1Cc2ccccc2C(CNC2CCCCC2)C1c1cccc(F)c1F (centres unmarked) [TRG 2405-99]

IC50 [2]: 0.13 µM
Compound: CCNc1ccc(C2C(CNC3CCCCC3)c3ccccc3CN2CCCC(CN)NCc2ccc(Cl)cc2)cc1 (centres unmarked) [TRG 2411-170]

% Disp. of 125I-HP 467 (first of duplicate): 42.5%
% Disp. of 125I-HP 467 (second of duplicate): 46.1%
Compound: CNC(CN)CCCCN1Cc2ccccc2C(CNC2CCCCC2)C1c1ccc(C)o1 (centres unmarked) [TRG 2405-259]

% Disp. of 125I-HP 467 (first of duplicate): 61.1%
% Disp. of 125I-HP 467 (second of duplicate): 56.8%
Compound: CNC(CN)CN1Cc2ccccc2C(CNC2CCCCC2)C1c1ccc(Br)o1 (centres unmarked) [TRG 2405-179]

IC50 [1]: 0.34 µM
Compound: CCCCNc1ccc(C2C(CN)c3ccccc3CN2CCCCC(CN)NCc2ccccc2)cc1 (centres unmarked) [TRG 2411-107]

IC50 [1]: 0.53 µM
Compound: CCNC(CN)CCCCN1Cc2ccccc2C(CN)C1c1ccc(-c2ccccc2)cc1 (centres unmarked) [TRG 2411-24]

From US6608082B1, “Treatment of erectile dysfunction using isoquinoline compound melanocortin receptor ligands” (Lion Bioscience AG, priority 1998, dated 2003)
